Measured values published in BindingDB's records for doi:10.1016/s0960-894x(03)00195-1 (Abbott Laboratories, 2003).

experiment: Inhibition of transfer of […] to biotin K-ras peptide (KKSKTKCVLL) catalyzed by bovine GGTase-I

For `Cn1cncc1C(OCc1ccc(C#N)nc1-c1cc(F)cc(F)c1)c1ccc(C#N)cc1` (centres undefined), which IC50 is on record?
Its IC50 is 4800 nM.

With `Cn1cncc1C(OCc1ccc(C#N)cc1-c1cc(Cl)cc(Cl)c1)c1ccc(C#N)nc1` (centres undefined) [5-[(3',5'-Dichloro-5-cyano-biphenyl-2-ylmethoxy)-(3-methyl-3H-imidazol-4-yl)-methyl]-pyridine-2-carbonitrile] as the compound, how does the IC50 read?
The IC50 was 960 nM.

For `Cn1cncc1C(OCc1ccc(C#N)nc1-c1cccc(OC(F)(F)F)c1)c1ccc(C#N)cc1` (centres undefined), which IC50 is on record?
Its IC50 is 510 nM.

With `CC(=O)N1CCN(c2nc(COC(c3ccc(C#N)cc3)c3cncn3C)c(-c3cccc(Cl)c3)cc2C#N)CC1` (centres undefined) as the compound, how does the IC50 read?
Its IC50 is 2100 nM.

Which IC50 does the source give for `Cn1cncc1C(OCc1ccc(C#N)c(-c2ccc3ccccc3c2)n1)c1ccc(C#N)cc1` (centres undefined) here?
The IC50 was 2600 nM.

Which IC50 does the source give for `Cn1cncc1C(OCc1ccc(C#N)cc1)c1ccc(C#N)c(-c2cccc3cccnc23)c1` (centres undefined) [4-[(4-Cyano-benzyloxy)-(3-methyl-3H-imidazol-4-yl)-methyl]-2-quinolin-8-yl-benzonitrile] here?
Its IC50 is 103 nM.

Which IC50 does the source give for `Cn1cncc1C(OCc1ccc(C#N)nc1-c1cccc(Cl)c1)c1ccc(C#N)cc1` (centres undefined) [6-(3-Chloro-phenyl)-5-[(4-cyano-phenyl)-(3-methyl-3H-imidazol-4-yl)-methoxymethyl]-pyridine-2-carbonitrile] here?
The IC50 was 1700 nM.

For `Cn1cncc1C(OCc1ccc(C#N)nc1-c1ccc(OC(F)(F)F)cc1)c1ccc(C#N)cc1` (centres undefined) [5-[(4-Cyano-phenyl)-(3-methyl-3H-imidazol-4-yl)-methoxymethyl]-6-(4-trifluoromethoxy-phenyl)-pyridine-2-carbonitrile], which IC50 is on record?
The IC50 was 1200 nM.

With `Cn1cncc1[C@H](OCc1nc(Cl)c(C#N)cc1-c1cccc(Cl)c1)c1ccc(C#N)cc1` as the compound, how does the IC50 read?
Its IC50 is 2800 nM.

Which IC50 does the source give for `Cn1cncc1C(OCc1ccc(C#N)cc1-c1ccc(F)c(Cl)c1)c1ccc(C#N)nc1` (centres undefined) [5-[(3'-Chloro-5-cyano-4'-fluoro-biphenyl-2-ylmethoxy)-(3-methyl-3H-imidazol-4-yl)-methyl]-pyridine-2-carbonitrile] here?
The IC50 was 8600 nM.

For `Cn1cncc1C(OCc1nc(N2CCN(C(=O)OC(C)(C)C)CC2)c(C#N)cc1-c1cccc(Cl)c1)c1ccc(C#N)cc1` (centres undefined), which IC50 is on record?
The IC50 was 650 nM.

With `Cn1cncc1C(OCc1ccc(C#N)cn1)c1ccc(C#N)c(-c2cccc3ccccc23)c1` (centres undefined) [A-315493] as the compound, how does the IC50 read?
The IC50 was 24 nM.

Which IC50 does the source give for `Cn1cncc1C(OCc1ccc(C#N)c(-c2cccc(Cl)c2)n1)c1ccc(C#N)cc1` (centres undefined) [2-(3-Chloro-phenyl)-6-[(4-cyano-phenyl)-(3-methyl-3H-imidazol-4-yl)-methoxymethyl]-nicotinonitrile] here?
Its IC50 is 1100 nM.

For `Cn1cncc1C(OCc1ccc(C#N)nc1-c1cc(Cl)cc(Cl)c1)c1ccc(C#N)cc1` (centres undefined) [5-[(4-Cyano-phenyl)-(3-methyl-3H-imidazol-4-yl)-methoxymethyl]-6-(3,5-dichloro-phenyl)-pyridine-2-carbonitrile], which IC50 is on record?
Its IC50 is 1400 nM.

Which IC50 does the source give for `Cn1cncc1C(OCc1ccc(C#N)nc1-c1ccc2c(c1)OC(F)(F)O2)c1ccc(C#N)cc1` (centres undefined) [5-[(4-Cyano-phenyl)-(3-methyl-3H-imidazol-4-yl)-methoxymethyl]-6-(2,2-difluoro-benzo[1,3]dioxol-5-yl)-pyridine-2-carbonitrile] here?
Its IC50 is 1100 nM.

Which IC50 does the source give for `Cn1cncc1C(OCc1ccc(C#N)cc1-c1cccc(Cl)c1)c1ccc(C#N)nc1` (centres undefined) [5-[(3'-Chloro-5-cyano-biphenyl-2-ylmethoxy)-(3-methyl-3H-imidazol-4-yl)-methyl]-pyridine-2-carbonitrile] here?
The IC50 was 8620 nM.

With `Cn1cncc1C(OCc1nc(N2CCOCC2)c(C#N)cc1-c1cccc(Cl)c1)c1ccc(C#N)cc1` (centres undefined) [5-(3-Chloro-phenyl)-6-[(4-cyano-phenyl)-(3-methyl-3H-imidazol-4-yl)-methoxymethyl]-2-morpholin-4-yl-nicotinonitrile] as the compound, how does the IC50 read?
The IC50 was 1800 nM.

Which IC50 does the source give for `Cn1cncc1C(OCc1nc(N2CCC(O)CC2)c(C#N)cc1-c1cccc(Cl)c1)c1ccc(C#N)cc1` (centres undefined) [5'-(3-Chloro-phenyl)-6'-[(4-cyano-phenyl)-(3-methyl-3H-imidazol-4-yl)-methoxymethyl]-4-hydroxy-3,4,5,6-tetrahydro-2H-[1,2']bipyridinyl-3'-carbonitrile] here?
Its IC50 is 830 nM.

With `CN1CCN(c2nc(COC(c3ccc(C#N)cc3)c3cncn3C)c(-c3cccc(Cl)c3)cc2C#N)CC1` (centres undefined) [5-(3-Chloro-phenyl)-6-[(4-cyano-phenyl)-(3-methyl-3H-imidazol-4-yl)-methoxymethyl]-2-(4-methyl-piperazin-1-yl)-nicotinonitrile] as the compound, how does the IC50 read?
The IC50 was 2400 nM.

Which IC50 does the source give for `Cn1cncc1C(OCc1nc(N2CCC(C(N)=O)CC2)c(C#N)cc1-c1cccc(Cl)c1)c1ccc(C#N)cc1` (centres undefined) [5'-(3-Chloro-phenyl)-3'-cyano-6'-[(4-cyano-phenyl)-(3-methyl-3H-imidazol-4-yl)-methoxymethyl]-3,4,5,6-tetrahydro-2H-[1,2']bipyridinyl-4-carboxylic acid amide] here?
Its IC50 is 2100 nM.

With `COc1cccc(-c2cc(C#N)ccc2COC(c2ccc(C#N)cc2)c2cncn2C)c1` (centres undefined) [4-{[(4-cyanophenyl)(1-methyl-1H-imidazol-5-yl)methoxy]methyl}-3-(3-methoxyphenyl)benzonitrile] as the compound, how does the IC50 read?
Its IC50 is 3900 nM.

Which IC50 does the source give for `Cn1cncc1C(OCc1ccc(C#N)cc1-c1cccc(OC(F)(F)F)c1)c1ccc(C#N)nc1` (centres undefined) [5-[(5-Cyano-3'-trifluoromethoxy-biphenyl-2-ylmethoxy)-(3-methyl-3H-imidazol-4-yl)-methyl]-pyridine-2-carbonitrile] here?
Its IC50 is 990 nM.

Which IC50 does the source give for `Cn1cncc1C(OCc1ncc(C#N)cc1-c1cccc(Cl)c1)c1ccc(C#N)cc1` (centres undefined) here?
Its IC50 is 4200 nM.

Which IC50 does the source give for `Cn1cncc1C(OCc1ccc(C#N)nc1-c1ccc2ccccc2c1)c1ccc(C#N)cc1` (centres undefined) [5-[(4-Cyano-phenyl)-(3-methyl-3H-imidazol-4-yl)-methoxymethyl]-6-naphthalen-2-yl-pyridine-2-carbonitrile] here?
Its IC50 is 5500 nM.
